Experimental findings from the METLIN SMRT retention time set (Domingo-Almenara et al. 2019) are described below.

A short description of this data set: gradient 5% acetonitrile 3 min, to 50% in 2 min, to 85% in 15 min, held 3 min, 100 µL/min. The conditions noted are these: column: Zorbax Extend-C18 2.1 x 50 mm; eluents: water / acetonitrile, 0.1% formic acid. The essentials: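 The system's dead and dwell volumes were 40 μL and 900 μL, with a Zorbax Extend-C18 column (2.1 × 50 mm, 1.8 μm) run at 100 μL/min in water and acetonitrile containing 0.1% formic acid each. Pure standards were analyzed in mixtures of ~100 molecules by HPLC–quadrupole time-of-flight mass spectrometry in positive and negative ionization mode. Retention time was assigned from computationally picked, manually inspected adduct peaks.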
Regarding `Cn1ncc2c(Nc3cccc(Cl)c3)nc(N3CCCC3)nc21`, the RP-LC retention time came to 978 s.
In the case of `Cn1c(=O)n([C@H]2CCN(C(=O)c3ccco3)C2)c2ncccc21` it was 656 s; in that of `Clc1ccccc1Cc1nc(-c2ccc(OC3CCNC3)cc2)no1` (configuration not stated), 704 s.
Turning to `CC(C)(Oc1ccc(Cl)cc1)C(=O)N1CCN(CC(O)c2cccs2)CC1` (configuration not stated), the RP-LC retention time was found to be 603 s.
Consider `COc1ccc(N2CCN(S(=O)(=O)c3cc(-c4nnc(C5CCC5)o4)co3)CC2)cc1`, for which the RP-LC retention time is 1000 s.
Molecule `COc1ccc(NC(=O)c2cnc(N3CCN(CC(=O)N4CCCC4)CC3)nc2N)cc1` gave an RP-LC retention time of 586 s.
Consider `Cc1ccc(NS(=O)(=O)c2cc(-c3[nH]ncc3C(=O)N3CCCCC3)oc2C)c(F)c1`, for which the RP-LC retention time came to 806 s.
As for `CCN1C(=O)COc2ccc(-c3nc(NC(=O)c4ccccc4)sc3C)cc21`, the figure is 1030 s; as for `Cc1ccc(N2CCN(C(=O)c3ccc(Cn4cncn4)cc3)CC2)c(C)c1`, 867 s.
`Cc1nc(-c2cnccn2)nc2c1CCC(=O)N2CCC1=CCCCC1` registered an RP-LC retention time of 876 s.
Molecule `CC1Oc2ccccc2OC1C(=O)NCCn1nc(-c2ccco2)ccc1=O` (configuration not stated) displayed an RP-LC retention time of 722 s.
As for `CCOC(=O)c1cc(C2CC2)nc2c1c(=O)n(CC(=O)NC1CCCC1)c(=O)n2C`, the RP-LC retention time was found to be 952 s.
The molecule `COCC(=O)N1CCC(Oc2nccnc2N2CCc3ccccc32)C1` (configuration not stated) displayed an RP-LC retention time of 779 s.
As to `COc1ccc(C(=O)CN(C(=O)N2CCN(C)CC2)S(=O)(=O)c2ccc(C)cc2)cc1`, the RP-LC retention time was 588 s.
In the case of `CCOc1ccccc1NC(=O)CSc1ccc(N2CCCC(C(=O)NC3CC3)C2)nn1` (configuration not stated) it was 705 s; in that of `Cc1nc(N2CCCC2)c2c(C(=O)NCCCc3ccccc3)c(C)oc2n1`, 754 s.
`O=C(NC1CCCCC1)c1nc(Nc2ccc(F)cc2)c2ccccc2n1`: the RP-LC retention time is 883 s.
With `O=C(Cc1ccc(Br)cc1)N1CCN(c2cc(-c3ccc(Cl)cc3)[nH]n2)CC1`, the RP-LC retention time was 953 s.
Regarding `CCOC(=O)CNC(=O)N1CCN(Cc2nc3cccnc3n2-c2ccccc2)CC1`, the RP-LC retention time stood at 585 s.
As for `CCOC(=O)c1cccc(NC(=O)Cc2csc3nc(-c4ccc(C)c(C)c4)cn23)c1`, the figure is 929 s.
In the case of `COc1ccc(NC(=O)CN2CCc3[nH]c4c(C)c(C)ccc4c(=O)c3C2)cc1Cl` it was 650 s; in that of `COc1cc(-c2noc(-c3nc(-c4ccccc4F)no3)n2)cc(OC)c1OC`, 1140 s.
In turn, `CC1=C(c2ccc(C)c(C)c2)S(=O)(=O)N=C1N1CCC(NC(=O)C2CCOC2)CC1` (configuration not stated) came in with an RP-LC retention time of 747 s.
`COc1cccc(CCC(=O)NC(C)C(=O)Nc2nc3ccccc3[nH]2)c1` (configuration not stated) showed an RP-LC retention time of 660 s.
The molecule `O=C(Nc1ccc2cn[nH]c2c1)C1CC1` yielded an RP-LC retention time of 608 s.
`CCn1nccc1C(=O)N1C[C@@H]2C[C@H](NC(=O)c3ccccc3)[C@H]1C2` gave an RP-LC retention time of 673 s.
Molecule `Cc1nn(C(C)C(=O)NCCCN2CCCCCC2)c(=O)c2c1sc1ccccc12` (configuration not stated) registered an RP-LC retention time of 702 s.
`COc1ccc(C(=O)Nc2ccc3nc(N4CC(C)CC(C)C4)cc(C(=O)O)c3c2)cc1` (configuration not stated) registered an RP-LC retention time of 680 s.
In turn, `COC(=O)c1ccc(NC(=O)C2CCN(S(=O)(=O)c3c(C)nn(-c4ccccc4)c3C)CC2)cc1` had an RP-LC retention time of 955 s.
`O=C(CN1C[C@H]2C[C@H](C1)[C@H]1CCCC(=O)N1C2)NCCC1=CCCCC1` registered an RP-LC retention time of 627 s.
For `O=C(NCc1cc(F)cc(F)c1)C1CCN(c2cnc(N3CCCC3)nc2)CC1`, the RP-LC retention time was determined as 674 s.
Take `CC1Oc2ccc(-c3csc(NC(=O)C4CCCCC4)n3)cc2NC1=O` (configuration not stated): the RP-LC retention time is 922 s.
